Source: patent publication US20260306460A1, “COMPOSITION FOR REMOVING AND INHIBITING SENESCENT CELLS, AND USES THEREOF” (LIFECEUTIX CO., LTD., priority 2023, published 2026)

Key:
[1] = test system: doxorubicin-induced aged C57BL6J mice; assay: Fatigue, weakness and weight loss in doxorubicin-aged mice, Example 22-7, Table 36; assay type: in vivo, mouse; conditions: for Grip Sterenght Test Strength / Open Field Test Time in Center / Wire Hanging Test Time: amount after aging calculated as 100%; for Mean Body Weight: untreated 20.8 (±1.7)
Protocol: Eight-week-old male C57BL6J mice (KRIBB Laboratory Animal Resource Center) were acclimated to the experimental environment for one week. […] The aging-induced mice were randomly assigned to experimental and control groups. […] The control group received only the solution in the same volume. After the end of drug administration, the methods described in each example below were performed.
The amount of each evaluation after aging was calculated as 100% and compared with the amount of each evaluation after test compound treatment.

[2] = test system: HMGN1 secreted from senescent human cells; assay: HMGN1 secretion (ELISA) from doxorubicin-induced senescent human cells, Example 11; assay type: cell-based; conditions: senescent untreated = 100%; 30 μM; 90 μM for LX-305, 1302, 1603, 2005, 2702, 2901, 3106; 270 μM for LX-1103, 2007
[3] = test system: senescent A549 cells; assay: Viability of senescent A549 cancer cells (CellTiter-Glo), Example 12; assay type: cell-based, human; conditions: 0 μM = 100
Protocol: Cells were treated with doxorubicin or control (DMSO) and cultured.
Cancer cells in which aging was induced by treatment with doxorubicin were treated with the test compound at designated concentrations and measured using the CellTiter-Glo Luminescent Cell Viability Assay (Promega).

[4] = test system: transplanted kidney of aged mice; assay: Efficiency of kidney transplantation from aged mice into young mice; assay type: in vivo, mouse
Protocol: Furthermore, the efficiency of kidney transplantation following the removal of senescent cells from the kidney was evaluated. Kidneys extracted from aged mice of Example 21-1, untreated and treated with LX-403, were transplanted into 3-month-old young mice. Three days later, the efficiency of kidney transplantation was assessed through analysis of markers of aging and kidney damage. […] This improvement in transplantation efficiency was also observed when kidneys extracted from aged mice were transplanted after removing senescent cells under ex vivo conditions, such as by culturing them in an LX-403-containing medium.

[5] = test system: SAOS-2; assay: Suppression of doxorubicin-senescent SAOS-2 tumors in nude mice, Example 19; assay type: in vivo, mouse; conditions: after DOX 10 mg/kg ip; 21 days daily; LX-5701 360 mg/kg po, LX-2101 20 mg/kg ip, LX-2102 10 mg/kg ip; DOX repeated as control
Protocol: Seven-week-old male BALB/c nude mice (KRIBB Laboratory Animal Resource Center) were acclimated to the experimental environment for one week, after which they were randomly assigned to experimental and control groups. Evaluation was performed using the same method as in Example 2-1 of WO2023-085787 A1. Cultured human osteosarcoma cell lines, SAOS-2 (10^6 cells), were mixed in phosphate-buffered saline (PBS) and administered subcutaneously to anesthetized mice using 2% isoflurane (Sigma). When the tumors reached approximately […], doxorubicin (10 mg/kg) was mixed in a 1:1 solution of distilled water and PBS (pH 7.2) and administered intraperitoneally to induce tumor senescence. After 10 days, LX-5701 mixed in PBS at a concentration of 360 mg/kg was administered orally daily for 21 days, or LX-2101 mixed in PBS solution with 5% DMSO at a concentration of 20 mg/kg or LX-2102 mixed in PBS with 5% DMSO at a concentration of 10 mg/kg was administered intraperitoneally daily for 21 days, and then the tumor size was measured. The control group was repeatedly administered a solution mixed with doxorubicin, and then the tumor size was measured.

[6] = test system: naturally aged C57BL6J mice; assay: p16 mRNA in organs of naturally aged mice, Example 21-2, Table 18; assay type: in vivo, mouse; conditions: 22-month-old naturally aged mice, untreated aged = 100%
Protocol: (§1) 22-month-old female C57BL6J mice (KRIBB Laboratory Animal Resource Center) were acclimated to the experimental environment for one week, after which the aged mice were randomly assigned to experimental and control groups. Eight-week-old, non-aged mice served as controls. LX-403 was mixed in a 10% ethanol solution of PEG400 and administered orally at a concentration of 25 mg/kg daily for 21 days, or administered to the skin, joints, or eyes at a concentration of 1 μM. LX-1801 was mixed in distilled water with 4% DMSO, 30% PEG300, and 5% Tween80 and administered to the skin, joints, or eyes at a concentration of 0.4 μM daily for 21 days. LX-2001 was mixed in PBS and administered to the skin, joints, or eyes at a concentration of […] daily for 21 days. LX-2002 was mixed in distilled water with 4% DMSO, 30% PEG300, and 5% Tween80 and administered to the skin, joints, or eyes at a concentration of 2 μM daily for 21 days. […] LX-2005 was mixed in distilled water with 4% DMSO, 30% PEG300, and 5% Tween80 and administered to the skin, joints, or eyes at a concentration of 90 μM daily for 21 days. LX-2007 was mixed in distilled water with 4% DMSO, 30% PEG300, and 5% Tween80 and administered to the skin, joints, or eyes at a concentration of 90 μM daily for 21 days. […] LX-3002 was mixed in distilled water with 4% DMSO, 30% PEG300, and 5% Tween80 and administered orally at a concentration of 10 mg/kg daily for 21 days. […] LX-5411 was mixed in 5% PBS and administered orally at a concentration of 10 mg/kg daily for 21 days or administered to the skin, joints, or eyes at a concentration of 3 μM. LX-5701 was mixed in PBS and administered orally at a concentration of 360 mg/kg daily for 21 days. LX-6807 was mixed in saline and administered intraperitoneally at a concentration of 1 mg/kg daily for 21 days. LX-2101 or LX-2102 was mixed in PBS solution with 5% DMSO and administered intraperitoneally at a concentration of 20 mg/kg or 10 mg/kg, respectively, daily for 21 days. The control group received only the solution in the same volume. After the end of drug administration, the methods described in each example below were performed.
Mice were sacrificed, and RNA was extracted from each organ tissue using the same method as in Example 7-2 of WO2023-085787 A1. qRT-PCR was performed with the synthesized cDNA. […] The amount of p16 mRNA after aging was calculated as 100% and compared with the amount of p16 mRNA after test compound treatment.

[7] = test system: naturally aged C57BL6J mice; assay: Lipofuscin staining in muscle of naturally aged mice, Example 21-4; assay type: in vivo, mouse; conditions: untreated aged = 100, LX-5701 360 mg/kg po, LX-2101 20 mg/kg ip, LX-2102 10 mg/kg ip, daily 21 days
Protocol: as §1, with “The control group received only the solution in the same volume. After the end of drug administration, the methods described in each example below were performed.” left out
Mice were sacrificed and evaluated using the same method as in Example 7-4 of WO2023-085787 A1. […]

Compound | Grip Sterenght Test Strength [1] | Open Field Test Time in Center [1] | Wire Hanging Test Time [1] | Mean Body Weight [1] | Tumor Diameter [5] | p16 mRNA (%), Brain [6] | p16 mRNA (%), Eye [6] | p16 mRNA (%), Femur [6] | p16 mRNA (%), Heart [6] | p16 mRNA (%), Kidney [6] | p16 mRNA (%), Knee joint [6] | p16 mRNA (%), Liver [6] | p16 mRNA (%), Lung [6] | p16 mRNA (%), Muscle [6] | p16 mRNA (%), Skin [6] | p16 mRNA (%), eWAT [6] | Lipofuscin (staining area) [7] | further results
Cc1cccc([C@H](C)c2cnc[nH]2)c1C [LX-6807, Dexmedetomidine] | 137 (±6.3) % | 249 (±34.1) % | 209 (±14.5) % | 23.2 (±2.7) g | – | – | – | – | – | – | – | – | – | – | – | – | – | –
Tocofersolan [LX-3001] | 120 (±9.3) % | – | 127 (±13.3) % | 21.2 (±1.3) g | – | – | – | – | – | – | – | – | – | – | – | – | – | HMGN1 [2]: 301%; Survival ([3]; 1.1 μM): 101.6%; Survival ([3]; 10 μM): 22.6%; Survival ([3]; […]): 95.6%
O=C(C(C[N+](=O)[O-])=NO)N1CCN(C(c2ccc(Cl)cc2)c2ccc(Cl)cc2)CC1 [LX-403] | – | – | – | – | – | – | – | – | – | – | – | – | – | – | – | – | – | p16 of transplanted kidney, serum urea and creatinine ([4]; 3 days after transplantation): reduced; efficiency of kidney transplantation ([4]; mouse, in vivo): improves the efficiency of kidney transplantation
CCCC\C=C/C=C/C=C\CCCCCCCC(=O)O [LX-2707, Punicic acid] | 128 (±5.7) % | 232 (±33.6) % | 192 (±12.7) % | 22.4 (±2.1) g | – | – | – | – | – | – | – | – | – | – | – | – | – | –
S=C(N/N=C1\CCCc2cccnc21)N1CCN(c2ccccn2)CC1 [LX-801] | – | – | – | – | – | – | – | – | – | – | – | – | – | – | – | – | – | HMGN1 [2]: 265%; Survival ([3]; 1.1 μM): 78.1%; Survival ([3]; 10 μM): 12.7%; Survival ([3]; […]): 58.5%
CC1(C)CC[C@]2(NC(=O)C(C)(F)F)CC[C@]3(C)[C@H](C(=O)C=C4[C@@]5(C)C=C(C#N)C(=O)C(C)(C)[C@@H]5CC[C@]43C)[C@@H]2C1 [LX-2101, Omaveloxolone] | – | – | – | – | 6.8 (±1.4) mm | 62% | 62% | 61% | 78% | 46% | 75% | 62% | 54% | 82% | 80% | 42% | 64 (±11.6) % | –
COC(=O)[C@]12CCC(C)(C)C[C@H]1[C@H]1C(=O)C=C3[C@@]4(C)C=C(C#N)C(=O)C(C)(C)[C@@H]4CC[C@@]3(C)[C@]1(C)CC2 [LX-2102, Bardoxolone methyl] | – | – | – | – | 7.1 (±2.6) mm | 85% | 72% | 64% | 81% | 53% | 64% | 58% | 71% | 75% | 77% | 39% | 71 (±8.1) % | –
O=C1C2CCN(CC2)C1CNC(=O)C(F)(F)F (stereo not shown) [LX-5701] | 117 (±6.9) % | 192 (±24.3) % | 139 (±8.2) % | 23.0 (±2.8) g | 6.1 (±4.9) mm | 71% | 63% | 70% | 72% | 42% | 66% | 34% | 58% | 64% | 75% | 51% | 69 (±10.8) % | –
